Results as given in PubChem BioAssay AID256 (DTP/NCI, 2004).
Where “and” joins values, the source holds several entries; their conditions need not be identical. Identical values can stand only once. Inconclusive results and toxic doses are left out. How the source made its calls: active means survival T/C of 150% or more; inactive means T/C below 125% in these data.

System: CD2F1 mice, L1210 leukemia ip, survival T/C
Experiment: NCI In Vivo Anticancer Drug Screen. Data for tumor model L1210 Leukemia (intraperitoneal) in CD2F1 (CDF1) mice
Settings: higher = longer survival
How it was run: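 Compound-dosed mice with transplantable tumor versus matched vehicle controls; endpoint ratio T/C reported.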

[1] = endpoint: mean survival time, dose: 100.0 mg/kg/injection, schedule: Q01DX009 (ip), vehicle: saline with Tween-80
[2] = endpoint: mean survival time, dose: 400.0 mg/kg/injection, schedule: Q01DX009 (ip), vehicle: saline with Tween-80
[3] = endpoint: mean survival time, dose: 100.0 mg/kg/injection, schedule: Q01DX009 (ip), vehicle: Klucel (hydroxypropylcellulose) (HPC)
[4] = endpoint: mean survival time, dose: 200.0 mg/kg/injection, schedule: Q01DX009 (ip), vehicle: Klucel (hydroxypropylcellulose) (HPC)
[5] = endpoint: mean survival time, dose: 400.0 mg/kg/injection, schedule: Q01DX009 (ip), vehicle: Klucel (hydroxypropylcellulose) (HPC)
[6] = endpoint: mean survival time, dose: 100.0 mg/kg/injection, schedule: Q04DX003 (ip), vehicle: saline with Tween-80
[7] = endpoint: mean survival time, dose: 200.0 mg/kg/injection, schedule: Q04DX003 (ip), vehicle: saline with Tween-80
[8] = endpoint: mean survival time, dose: 400.0 mg/kg/injection, schedule: Q04DX003 (ip), vehicle: saline with Tween-80
[9] = endpoint: mean survival time, dose: 100.0 mg/kg/injection, schedule: Q01DX001 (ip), vehicle: saline
[10] = endpoint: mean survival time, dose: 100.0 mg/kg/injection, schedule: Q04DX003 (ip), vehicle: saline
[11] = endpoint: mean survival time, dose: 200.0 mg/kg/injection, schedule: Q01DX001 (ip), vehicle: saline
[12] = endpoint: mean survival time, dose: 200.0 mg/kg/injection, schedule: Q04DX003 (ip), vehicle: saline
[13] = endpoint: mean survival time, dose: 400.0 mg/kg/injection, schedule: Q01DX001 (ip), vehicle: saline
[14] = endpoint: mean survival time, dose: 400.0 mg/kg/injection, schedule: Q04DX003 (ip), vehicle: saline
[15] = endpoint: mean survival time, dose: 200.0 mg/kg/injection, schedule: Q01DX009 (ip), vehicle: saline with Tween-80
[16] = endpoint: mean survival time, dose: 100.0 mg/kg/injection, schedule: Q01DX001 (ip), vehicle: saline with Tween-80
[17] = endpoint: mean survival time, dose: 200.0 mg/kg/injection, schedule: Q01DX001 (ip), vehicle: saline with Tween-80
[18] = endpoint: mean survival time, dose: 400.0 mg/kg/injection, schedule: Q01DX001 (ip), vehicle: saline with Tween-80
[19] = endpoint: mean survival time, dose: 50.0 mg/kg/injection, schedule: Q01DX009 (ip), vehicle: saline with Tween-80

Measured: T/C

CCCNC(=O)Oc1cccc(NC(=O)CC)c1
inactive: [1] 96 % of control | [2] 89 % of control

O=Cc1ccccc1
inactive: endpoint: mean survival time, dose: 12.5 mg/kg/injection, schedule: Q01DX009 (ip), vehicle: Klucel (hydroxypropylcellulose) (HPC) 101 % of control | endpoint: mean survival time, dose: 25.0 mg/kg/injection, schedule: Q01DX009 (ip), vehicle: Klucel (hydroxypropylcellulose) (HPC) 95 % of control and 102 % of control | endpoint: mean survival time, dose: 50.0 mg/kg/injection, schedule: Q01DX009 (ip), vehicle: Klucel (hydroxypropylcellulose) (HPC) 96 % of control and 100 % of control | [3] 97 % of control and 102 % of control | [4] 97 % of control and 105 % of control | [5] 92 % of control and 93 % of control

COc1ccc(C2C(C(C)=O)=C(C)NC(C)=C2C(C)=O)cc1
inactive: [6] 88 % of control | [7] 87 % of control

O=[N+]([O-])c1ccccc1NCCNCCNc1ccccc1[N+](=O)[O-]
inactive: [6] 113 % of control | [7] 98 % of control | [8] 98 % of control

C/C(=N\Nc1ccccc1)C1=C(O)C(Cc2ccccc2)NC1=O (stereo unspecified)
inactive: endpoint: mean survival time, dose: 100.0 mg/kg/injection, schedule: Q04DX002 (ip), vehicle: saline with Tween-80 100 % of control | endpoint: mean survival time, dose: 200.0 mg/kg/injection, schedule: Q04DX002 (ip), vehicle: saline with Tween-80 100 % of control | endpoint: mean survival time, dose: 400.0 mg/kg/injection, schedule: Q04DX002 (ip), vehicle: saline with Tween-80 103 % of control

C1CCC2(CC1)SSC1(CCCCC1)S2
inactive: endpoint: mean survival time, dose: 100.0 mg/kg/injection, schedule: Q01DX009 (ip), vehicle: other 108 % of control | endpoint: mean survival time, dose: 200.0 mg/kg/injection, schedule: Q01DX009 (ip), vehicle: other 100 % of control | endpoint: mean survival time, dose: 400.0 mg/kg/injection, schedule: Q01DX009 (ip), vehicle: other 110 % of control

CC(=O)Nc1ccc2c(c1)C(=O)c1ccccc1-2
inactive: endpoint: mean survival time, dose: 50.0 mg/kg/injection, schedule: Q01DX001 (ip), vehicle: saline 104 % of control | [9] 101 % of control | endpoint: mean survival time, dose: 100.0 mg/kg/injection, schedule: Q01DX009 (ip), vehicle: saline 106 % of control | [10] 87 % of control | [11] 95 % of control | endpoint: mean survival time, dose: 200.0 mg/kg/injection, schedule: Q01DX009 (ip), vehicle: saline 96 % of control | [12] 94 % of control | [13] 87 % of control | endpoint: mean survival time, dose: 400.0 mg/kg/injection, schedule: Q01DX009 (ip), vehicle: saline 95 % of control | [14] 92 % of control

S=C(NNc1ccccc1)NC1CCCCC1
inactive: endpoint: mean survival time, dose: 25.0 mg/kg/injection, schedule: Q01DX009 (ip), vehicle: acetone 96 % of control | endpoint: mean survival time, dose: 50.0 mg/kg/injection, schedule: Q01DX009 (ip), vehicle: acetone 100 % of control | endpoint: mean survival time, dose: 100.0 mg/kg/injection, schedule: Q01DX009 (ip), vehicle: acetone 96 % of control

C=C(C)C(=NC(C)(C)C)Nc1ccccc1
inactive: endpoint: median survival time, dose: 6.25 mg/kg/injection, schedule: Q01DX009 (ip), vehicle: saline with Tween-80 105 % of control | endpoint: median survival time, dose: 12.5 mg/kg/injection, schedule: Q01DX009 (ip), vehicle: saline with Tween-80 110 % of control | endpoint: median survival time, dose: 25.0 mg/kg/injection, schedule: Q01DX009 (ip), vehicle: saline with Tween-80 108 % of control | endpoint: median survival time, dose: 50.0 mg/kg/injection, schedule: Q01DX009 (ip), vehicle: saline with Tween-80 108 % of control | endpoint: median survival time, dose: 100.0 mg/kg/injection, schedule: Q01DX009 (ip), vehicle: saline with Tween-80 112 % of control | endpoint: median survival time, dose: 200.0 mg/kg/injection, schedule: Q01DX009 (ip), vehicle: saline with Tween-80 121 % of control

O=C1CCCC1(c1ccccc1)c1ccccc1
inactive: [1] 101 % of control | [6] 91 % of control | [15] 101 % of control | [7] 91 % of control | [2] 95 % of control | [8] 94 % of control

CN(C)c1ccc(/C=C2\CCC/C(=C\c3ccc(N(C)C)cc3)C2=O)cc1
inactive: [3] 95 % of control | [4] 101 % of control | [5] 95 % of control

Cc1ccc(S)cc1
inactive: [16] 98 % of control | endpoint: mean survival time, dose: 100.0 mg/kg/injection, schedule: Q04DX003 (ip), vehicle: saline sonified 100 % of control | [17] 90 % of control | endpoint: mean survival time, dose: 200.0 mg/kg/injection, schedule: Q04DX003 (ip), vehicle: saline sonified 95 % of control | [18] 90 % of control | endpoint: mean survival time, dose: 400.0 mg/kg/injection, schedule: Q04DX003 (ip), vehicle: saline sonified 95 % of control

[N-]=[N+]=Nc1cc(NC(=O)c2ccccc2)ccc1NC(=O)c1ccccc1
inactive: [19] 101 % of control | [1] 96 % of control | [15] 104 % of control

NC(CS)=NC1CCCCC1
inactive: endpoint: mean survival time, dose: 12.5 mg/kg/injection, schedule: Q04DX002 (ip), vehicle: saline with Tween-80 104 % of control | endpoint: mean survival time, dose: 25.0 mg/kg/injection, schedule: Q04DX002 (ip), vehicle: saline with Tween-80 96 % of control

CC(C)(C)CC(C)(C)Nc1nc(NC(C)(C)CC(C)(C)C)nc(NC(C)(C)CC(C)(C)C)n1
inactive: endpoint: mean survival time, dose: 12.5 mg/kg/injection, schedule: Q01DX009 (ip), vehicle: saline with Tween-80 101 % of control | endpoint: mean survival time, dose: 25.0 mg/kg/injection, schedule: Q01DX009 (ip), vehicle: saline with Tween-80 95 % of control | [19] 97 % of control

CC(NC(=O)c1cnc2ccccc2n1)C(=O)NC(C(=O)O)C(C)C (stereo unspecified)
inactive: [9] 100 % of control | [11] 100 % of control | [13] 102 % of control

NC(=S)OCCCCCn1cnc2c(=S)nc[nH]c21
inactive: [16] 95 % of control | [17] 97 % of control | [18] 105 % of control

COC1C(CO)OC(n2c3c(Cl)cccc3c3c4c(c5c6cccc(Cl)c6[nH]c5c32)C(=O)NC4=O)C(O)C1O (stereo unspecified)
inactive: endpoint: median survival time, dose: 12.5 mg/kg/injection, schedule: Q01DX009 (ip), vehicle: distilled water + Tween-80 105 % of control and 112 % of control | endpoint: median survival time, dose: 25.0 mg/kg/injection, schedule: Q01DX009 (ip), vehicle: distilled water + Tween-80 114 % of control | endpoint: median survival time, dose: 36.0 mg/kg/injection, schedule: Q01DX009 (ip), vehicle: distilled water + Tween-80 113 % of control | endpoint: median survival time, dose: 50.0 mg/kg/injection, schedule: Q01DX009 (ip), vehicle: distilled water + Tween-80 112 % of control | endpoint: median survival time, dose: 60.0 mg/kg/injection, schedule: Q01DX009 (ip), vehicle: distilled water + Tween-80 115 % of control | endpoint: median survival time, dose: 100.0 mg/kg/injection, schedule: Q01DX009 (ip), vehicle: distilled water + Tween-80 121 % of control and 103 % of control | endpoint: median survival time, dose: 166.7 mg/kg/injection, schedule: Q01DX009 (ip), vehicle: distilled water + Tween-80 122 % of control | endpoint: median survival time, dose: 200.0 mg/kg/injection, schedule: Q01DX009 (ip), vehicle: distilled water + Tween-80 95 % of control

COc1ccc(OC)c(/C=C/c2ccc3ccccc3[n+]2C)c1
inactive: endpoint: mean survival time, dose: 5.0 mg/kg/injection, schedule: Q01DX009 (ip), vehicle: saline with Tween-80 98 % of control | endpoint: mean survival time, dose: 10.0 mg/kg/injection, schedule: Q01DX009 (ip), vehicle: saline with Tween-80 88 % of control

COn1c(-c2ccccc2)nc2c1C(=O)N(C)CN2C
inactive: endpoint: mean survival time, dose: 12.5 mg/kg/injection, schedule: Q01DX005 (ip), vehicle: other 96 % of control | endpoint: mean survival time, dose: 25.0 mg/kg/injection, schedule: Q01DX005 (ip), vehicle: other 96 % of control | endpoint: mean survival time, dose: 50.0 mg/kg/injection, schedule: Q01DX005 (ip), vehicle: other 96 % of control | endpoint: mean survival time, dose: 100.0 mg/kg/injection, schedule: Q01DX005 (ip), vehicle: other 95 % of control | endpoint: mean survival time, dose: 200.0 mg/kg/injection, schedule: Q01DX005 (ip), vehicle: other 96 % of control

O=C(O)/C=C\C(=O)Nc1ccccc1NC(=O)/C=C/C(=O)O
inactive: [10] 110 % of control | [12] 99 % of control | [14] 101 % of control

CSc1nnc(SC)c(SC)n1
inactive: endpoint: mean survival time, dose: 75.0 mg/kg/injection, schedule: Q01DX001 (ip), vehicle: saline 96 % of control

O=C1c2cccc3c2C2(O)c4c1cccc4C(=O)c1cccc(c12)C3=O
inactive: endpoint: mean survival time, dose: 132.0 mg/kg/injection, schedule: Q01DX009 (ip), vehicle: saline with Tween-80 104 % of control | [15] 121 % of control

CC1CCC(C(C)C2C(O)CC3C4CC=C5CC(O)CCC5(C)C4CCC32C)NC1 (stereo unspecified)
inactive: endpoint: mean survival time, dose: 50.0 mg/kg/injection, schedule: Q04DX003 (ip), vehicle: saline with Tween-80 93 % of control | [6] 90 % of control and 96 % of control | [7] 87 % of control and 98 % of control
